Data reported in US20110251379A1, “COMPOUNDS USEFUL FOR TREATING NEURODEGENERATIVE DISORDERS” (Satori Pharmaceuticals, Inc., priority 2010, published 2011).
Where two headings read alike, the source gives them in different places.

System: amyloid-beta (1-42) peptide
Assay: ELISA assay of amyloid-beta (1-42) in conditioned media of 2B7 cells
Format: cell-based
Details: for IC50: Aβ-42, 2B7 cells, 5 hours, read-out: IC50 range
Procedure: Compounds of the present invention, and extracts comprising said compounds, may be assayed as inhibitors of amyloid-beta (1-42) peptide in vitro or in vivo. Such assay methods are described in detail in U.S. Pat. No. 6,649,196, the entirety of which is hereby incorporated herein by reference.
In certain embodiments, provided compounds of the present invention, and extracts comprising said compounds, were assayed as inhibitors of amyloid-beta (1-42) peptide in vitro using an ELISA assay.
Capture Plate Prep: • 6E10 was diluted to 5.0 ug/mL in 100 mM NaHCO3 pH 8.2 (10 ug aliquot per 2 mL buffer); • 100 uL capture antibody solution was added to wells of 96 well plate; • Incubated overnight at 4° C. sealed; • Aspirated off capture antibody; and • Blocked with 250 uL of Blocking Buffer for 2-4 hours at rt sealed.
Conditioned Media: • Cultured 2B7 cells in 96 well plate with 250 uL of media per well until confluent; • Prepared serial dilution of compounds in DMSO at 100× the final desired concentration; • Washed wells with 2B7 cells lx with 250 uL of media; • Diluted DMSO stocks 1:100 into media and mix; and • Added 250 μL of media containing compounds (1% DMSO) to wells with 2B7 cells for 5 hours at 37° C.
Elisa Sample Prep: • Diluted conditioned media 1:2 into blocking buffer; • NOTE: If assaying for A-Beta 1-40 or total A-Beta, then diluted above sample 1:10 with a 50/50 mixture of non-conditioned media containing 1% DMSO and blocking buffer.
Standard Curve Sample Prep: • Diluted appropriate A-Beta peptide stock (stored in 1% NH4OH) to 200 μg/mL in blocking buffer; • Prepared a 1:2 serial dilution from the 200 μg/mL sample (150 μL into 150 μL blocking buffer); and • Added equal volume of standard curve samples to non-conditioned media with 1% DMSO.
Overnight Sample Incubation: • Aspirated blocking buffer from blocked plate; • Added 100 μL of samples to wells of plate (samples will be 50% media with 1% DMSO and 50% blocking buffer; and • Incubated overnight at 4° C. sealed.
Addition of Detection Antibody: • Aspirated off samples, wash 2× with 250 μL blocking buffer; and • Added 100 μL detection antibody labeled with HRP at 0.25 ug/mL in blocking buffer for 4 hours at room temperature sealed.
Final Wash and Readout: • Aspirated wells, wash 5× with 250 μL of PBS-T (2 minutes each wash at 30 RPM); • Added 100 μL TMB for 20 minutes; • Added 100 μL of 1M H3PO4; and • Read at 450 nm.
Coating Buffer (100 mM NaHCO3 pH 8.2)
PBS-T (PBS with 0.05% Tween-20)
Blocking Buffer (1% BSA in PBS-T)

[1] = Aβ-42, 20 umol/L, read-out: % Inhibition (range)

Row | SMILES | IC50 | further results
1 | CC(=O)O[C@@H]([C@H]1C[C@@H](C)[C@H]2[C@H](O1)[C@H](O)[C@@]1(C)[C@@H]3CC[C@H]4C(C)(C)[C@@H](O[C@H]5CN(C6COC6)CCO5)CC[C@@]45C[C@@]35CC[C@]21C)C(C)(C)O | – | IC50 (5 h): ≤ 1 µM
2 | CC(=O)O[C@@H]([C@H]1C[C@@H](C)C2C(O1)[C@H](O)[C@@]1(C)[C@@H]3CC[C@H]4C(C)(C)[C@@H](OCC(=O)O)CC[C@@]45C[C@@]35CC[C@]21C)C(C)(C)O (stereo partly drawn) | – | IC50 (5 h): 1 to 10 µM
3 | CC1CC(C(=O)NCc2ccccc2)OC2C1C1(C)CCC34CC35CCC(O)C(C)(C)C5CCC4C1(C)C2O (stereo not drawn) | > 10 µM | –
4 | CC(=O)O[C@H]1CC[C@]23C[C@]24CC[C@]2(C)C5[C@H](C)C[C@H]([C@H](OC(C)=O)C(C)(C)O)O[C@@H]5[C@H](O)[C@@]2(C)[C@@H]4CC[C@H]3C1(C)C (stereo partly drawn) | – | IC50 (5 h): ≤ 1 µM
5 | C[C@@H]1C[C@H]([C@H](O)C(C)(C)O)OC2=C1[C@@]1(C)CC[C@@]34C[C@@]35CC[C@H](O[C@@H]3OC[C@@H](O)[C@H](O)[C@H]3O)C(C)(C)[C@@H]5CC[C@H]4[C@]1(C)[C@H]2O | – | IC50 (5 h): 1 to 10 µM
6 | CC(=O)N(CC1CC(C)C2C(O1)C(O)C1(C)C3CCC4C(C)(C)C(O)CCC45CC35CCC21C)C(C)c1ccc(F)cc1 (stereo not drawn) | 1 to 10 µM | –
7 | CC1CC(C(O)C(C)(C)O)OC2C1C1(C)CCC34CC35CCC(OC3CN(CCCC(=O)O)CCO3)C(C)(C)C5CCC4C1(C)C2O (stereo not drawn) | > 10 µM | % Inhibition (range) (Aβ-42, 20 umol/L): E E (% inhibition of 25-75%); % Inhibition (range) (Aβ-42, 100 umol/L): E E (% inhibition of 25-75%)
8 | CC(C)C(O)[C@H]1C[C@@H](C)[C@H]2[C@H](O1)[C@H](O)[C@@]1(C)[C@@H]3CC[C@H]4C(C)(C)[C@@H](O)CC[C@@]45C[C@@]35CC[C@]21C (stereo partly drawn) | – | IC50 (5 h): > 10 µM; inhibition at 20 µM [1]: < 25%
9 | CC(=O)O[C@@H]([C@H]1C[C@@H](C)[C@H]2[C@H](O1)[C@H](O)[C@@]1(C)[C@@H]3CC[C@H]4C(C)(C)[C@@H](OC(=O)Cc5ccccn5)CC[C@@]45C[C@@]35CC[C@]21C)C(C)(C)O | – | IC50 (5 h): ≤ 1 µM
10 | CC(=O)N(C)CC1CC(C)C2C(O1)C(O)C1(C)C3CCC4C(C)(C)C(O)CCC45CC35CCC21C (stereo not drawn) | > 10 µM | –
11 | CC1CC(C(O)C(C)(C)O)OC2C1C1(C)CCC34CC35CCC(OC3CN(C(=O)CC6CCC6)CCO3)C(C)(C)C5CCC4C1(C)C2O (stereo not drawn) | – | % Inhibition (range) (Aβ-42, 20 umol/L): E (% inhibition of 25-75%); % Inhibition (range) (Aβ-42, 100 umol/L): F (% inhibition of <25%)
12 | CC1CC(CN)OC2C1C1(C)CCC34CC35CCC(O)C(C)(C)C5CCC4C1(C)C2O (stereo not drawn) | > 10 µM | –
13 | CC(=O)OC(C1CC(C)C2C(O1)C(O)C1(C)C3CCC4C(C)(C)C(OC(=O)C5(C)COC5)CCC45CC35CCC21C)C(C)(C)O (stereo not drawn) | ≤ 1 µM | –
14 | CC(=O)OC(C1CC(C)C2C(O1)C(OC(N)=O)C1(C)C3CCC4C(C)(C)C(O)CCC45CC35CCC21C)C(C)(C)O (stereo not drawn) | > 10 µM | –
15 | CC(=O)O[C@@H]([C@H]1C[C@@H](C)C2C(O1)[C@H](O)[C@@]1(C)[C@@H]3CC[C@H]4C(C)(C)[C@@H](O[C@@H]5OC[C@@H](O)[C@H](O)[C@H]5O)CC[C@@]45C[C@@]35CC[C@]21C)C(C)(C)O (stereo partly drawn) [drawing 891] | – | IC50 (5 h): ≤ 1 µM
16 | CC1CC(CN(C)C)OC2C1C1(C)CCC34CC35CCC(O)C(C)(C)C5CCC4C1(C)C2O (stereo not drawn) | > 10 µM | –
17 | CC(=O)N(CC1CC(C)C2C(O1)C(O)C1(C)C3CCC4C(C)(C)C(OC(=O)c5cccnc5)CCC45CC35CCC21C)C(C)(C)C (stereo not drawn) | > 10 µM | –
18 | CC(=O)N(Cc1cc(F)cc(F)c1)CC1CC(C)C2C(O1)C(O)C1(C)C3CCC4C(C)(C)C(OC(=O)c5ccncc5)CCC45CC35CCC21C (stereo not drawn) | > 10 µM | –
19 | CC(=O)N(Cc1ccccc1)C(C(=O)NCc1ccccc1)C1CC(C)C2C(O1)C(O)C1(C)C3CCC4C(C)(C)C(O)CCC45CC35CCC21C (stereo not drawn) | > 10 µM | –
20 | CC(=O)N(CC1CC(C)C2C(O1)C(O)C1(C)C3CCC4C(C)(C)C(O)CCC45CC35CCC21C)C(C)(C)C (stereo not drawn) | < 10 µM | –

Row | SMILES | IC50 | further results
21 | CCN1CCO[C@@H](O[C@H]2CC[C@]34C[C@]35CC[C@]3(C)[C@@H]6[C@H](O[C@@H]([C@H](OC(C)=O)C(C)(C)O)C[C@H]6C)[C@H](O)[C@@]3(C)[C@@H]5CC[C@H]4C2(C)C)C1 | – | IC50 (5 h): ≤ 1 µM
22 | CC(=O)N(Cc1ccccc1)CC1CC(C)C2C(O1)C(O)C1(C)C3CCC4C(C)(C)C(OC(=O)c5cccnc5)CCC45CC35CCC21C (stereo not drawn) | 1 to 10 µM | –
23 | CCC(=O)OC(C1CC(C)C2C(O1)C(O)C1(C)C3CCC4C(C)(C)C(OC5CN(C6COC6)CCO5)CCC45CC35CCC21C)C(C)(C)O (stereo not drawn) [drawing 805] | ≤ 1 µM | –
24 | C[C@@H]1C[C@H]([C@H](OC(N)=O)C(C)(C)O)OC2C1[C@@]1(C)CC[C@@]34C[C@@]35CC[C@H](O[C@@H]3OC[C@@H](O)[C@H](O)[C@H]3O)C(C)(C)[C@@H]5CC[C@H]4[C@]1(C)[C@H]2O (stereo partly drawn) | – | IC50 (5 h): 1 to 10 µM
25 | CC(=O)/C=C/[C@H]1C[C@@H](C)C2C(O1)[C@H](O)[C@@]1(C)[C@@H]3CC[C@H]4C(C)(C)[C@@H](O)CC[C@@]45C[C@@]35CC[C@]21C (stereo partly drawn) | – | inhibition at 20 µM [1]: < 25%
26 | CO[C@@H]1[C@@H](OC)[C@H](O[C@H]2CC[C@]34C[C@]35CC[C@]3(C)C6C(O[C@@H]([C@H](OC(C)=O)C(C)(C)O)C[C@H]6C)[C@H](O)[C@@]3(C)[C@@H]5CC[C@H]4C2(C)C)OC[C@H]1OC (stereo partly drawn) [drawing 937] | < 10 µM | –
27 | CC(=O)O[C@@H]([C@H]1C[C@@H](C)C2C(O1)C(=O)[C@@]1(C)[C@@H]3CC[C@H]4C(C)(C)[C@@H](O[C@@H]5OC[C@@H](O)[C@H](O)[C@H]5O)CC[C@@]45C[C@@]35CC[C@]21C)C(C)(C)O (stereo partly drawn) [drawing 895] | – | IC50 (5 h): > 1 µM
28 | CC(=O)N(CC1CC(C)C2C(O1)C(O)C1(C)C3CCC4C(C)(C)C(O)CCC45CC35CCC21C)C(C)c1ccccc1 (stereo not drawn) [drawing 844] | < 10 µM | –
29 | COC(=O)C1CC(C)C2C(O1)C(O)C1(C)C3CCC4C(C)(C)C(O)CCC45CC35CCC21C (stereo not drawn) | > 10 µM | –
30 | CC1CC(CN(CC2CC2)S(C)(=O)=O)OC2C1C1(C)CCC34CC35CCC(O)C(C)(C)C5CCC4C1(C)C2O (stereo not drawn) | > 10 µM | –
31 | CO[C@@H]1[C@@H](OC)[C@H](O[C@H]2CC[C@]34C[C@]35CC[C@]3(C)C6C(O[C@@H]([C@H](OC(C)=O)C(C)(C)O)C[C@H]6C)[C@H](O)[C@@]3(C)[C@@H]5CC[C@H]4C2(C)C)OC[C@H]1OC (stereo partly drawn) [drawing 938] | ≤ 1 µM | –
32 | CC1CC(C(OC(=O)N(C)C)C(C)(C)O)OC2C1C1(C)CCC34CC35CCC(O)C(C)(C)C5CCC4C1(C)C2O (stereo not drawn) [drawing 862] | > 10 µM | –
33 | C[C@@H]1C[C@H]([C@H](O)C(C)(C)O)OC2C1[C@@]1(C)CC[C@@]34C[C@@]35CC[C@H](O)C(C)(C)[C@@H]5CC[C@H]4[C@]1(C)[C@H]2O (stereo partly drawn) [drawing 888] | – | inhibition at 100 µM (Aβ-42, 100 umol/L, read-out: % Inhibition (range)): 25 to 75%
34 | CC1CC(C(O)C(C)(C)O)OC2C1C1(C)CCC34CC35CCC(OC3CN(C(=O)Cc6cc(F)cc(F)c6)CCO3)C(C)(C)C5CCC4C1(C)C2O (stereo not drawn) | – | % Inhibition (range) (Aβ-42, 20 umol/L): E E (% inhibition of 25-75%); % Inhibition (range) (Aβ-42, 100 umol/L): E E (% inhibition of 25-75%)
35 | CC1CC(C(OC(=O)C2CCC2)C(C)(C)O)OC2C1C1(C)CCC34CC35CCC(O)C(C)(C)C5CCC4C1(C)C2O (stereo not drawn) [drawing 859] | ≤ 1 µM | –
36 | CC(=O)OC(C1CC(C)C2C(O1)C(O)C1(C)C3CCC4C(C)(C)C(OC5CN(S(C)(=O)=O)CCO5)CCC45CC35CCC21C)C(C)(C)O (stereo not drawn) [drawing 785] | ≤ 1 µM | –
37 | CC(=O)O[C@H]1CC[C@]23C[C@]24CC[C@]2(C)C5C(C[C@@]2(C)C4CCC3C1(C)C)OC(C(F)(F)F)=C[C@H]5C (stereo partly drawn) | – | inhibition at 10 µM (Aβ-42, 10 umol/L, read-out: % Inhibition (range)): < 25%
38 | CCC(=O)OC(C)(C)[C@H]1OC23O[C@@H]1C[C@@H](C)[C@@H]2[C@@]1(C)CC[C@@]24C[C@@]25CC[C@H](O[C@@H]2OC[C@@H](O)[C@H](O)[C@H]2O)C(C)(C)[C@@H]5CC[C@H]4[C@]1(C)[C@H]3O | – | IC50 (5 h): 1 to 10 µM
39 | CC(=O)OC(C1CC(C)C2C(O1)C(OC(=O)C(F)(F)F)C1(C)C3CCC4C(C)(C)C(OC(=O)C(F)(F)F)CCC45CC35CCC21C)C(C)(C)O (stereo not drawn) | ≤ 1 µM | –
40 | CC1CC(C(O)C(C)(C)O)OC2C1C1(C)CCC34CC35CCC(OC3CN(C6CC6)CCO3)C(C)(C)C5CCC4C1(C)C2O (stereo not drawn) | – | % Inhibition (range) (Aβ-42, 100 umol/L): F (% inhibition of <25%)
